Here are results for 19 compounds from patent publication US9227971B2, “Pyrazolo[1,5-a]pyrimidine compounds as mTOR inhibitors” (Merck Sharp & Dohme Corp., priority 2010, dated 2016).

Experiment [1] deals with phosphorylated 4E-BP1 Thr37/46 (p4E-BP1 Thr37/46), mTORC1 activity, PC3 cells. The experiment is described as follows: mTOR target engagement assay, immunofluorescent cell-based, p4E-BP1 Thr37/46 readout (mTORC1 activity). The note with it: read-out: p4E-BP1 Thr37/46 IC50. The procedure, abridged:
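Seed PC3 cells overnight; treat with compound dilutions for ninety minutes at 37° C; fix with glyoxal and block; stain with anti-p4E-BP1 Thr37/46 overnight at 4° C, then fluorescent secondary; read fluorescence and fit IC50 against DMSO-only controls.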

Experiment [2] deals with phosphorylated AKT Ser473 (pAKT S473), mTORC2 activity, PC3 cells. The experiment is described as follows: mTOR target engagement assay, immunofluorescent cell-based, pAKT S473 readout (mTORC2 activity). The procedure, abridged:
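After blocking, cells were stained overnight at 4 °C with anti-pAKT S473 antibody, then a fluorescent secondary; inhibition was read as reduced fluorescence intensity.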

[3] abbreviates: Homo sapiens, PC-3, PC3 cells, compound treatment ninety minutes at 37° C.
Setting [4] is: Homo sapiens, PC-3, Table 3-1, PC3 cells.
The mark [5] stands for this setting: Homo sapiens, PC-3, Table 6-1, PC3 cells.

Where two headings read alike, the source gives them in different places.

In the case of `CCC(O)c1ccc(-c2cnn3c(N)c(C(C)=O)c([C@@H]4C[C@H]5CC[C@@H](C4)N5C(=O)c4nnc[nH]4)nc23)cn1` (some centres unmarked) [Compound 7.3], the results for the IC50 in experiment [1] (setting [3]) and in experiment [2] (setting [3]) were 100 to 1000 nM and 1 to 100 nM, respectively.

For `COCCOCc1ccc(-c2cnn3c(N)c(C(C)=O)c([C@@H]4C[C@H]5CC[C@@H](C4)N5C(=O)c4nnc[nH]4)nc23)cn1` [Compound 7.31, 1-(5-((1R,3s,5S)-8-(4H-1,2,4-triazole-3-carbonyl)-8-azabicyclo[3.2.1]octan-3-yl)-7-amino-3-(6-((2-methoxyethoxy)methyl)pyridin-3-yl)pyrazolo[1,5-a]pyrimidin-6-yl)ethanone], the IC50 in experiment [1] (setting [3]) and in experiment [2] (setting [3]) was 1000 to 10000 nM throughout.

For `CC(=O)c1c([C@@H]2C[C@H]3CC[C@@H](C2)N3C(=O)c2ncn[nH]2)nc2c(-c3cnc(C(C)(C)O)c(F)c3)cnn2c1N` [Compound 7.98, 1-(5-((1R,3s,5S)-8-(1H-1,2,4-triazole-5-carbonyl)-8-azabicyclo[3.2.1]octan-3-yl)-7-amino-3-(5-fluoro-6-(2-hydroxypropan-2-yl)pyridin-3-yl)pyrazolo[1,5-a]pyrimidin-6-yl)ethanone], the IC50 in experiment [1] (Homo sapiens, PC-3, PC3 cells) was in the range of 1 to 100 nM; in experiment [2] (Homo sapiens, PC-3, PC3 cells), 1 to 100 nM.

Turning to `CNC(=O)Nc1ccc(-c2cnn3c(N)cc([C@@H]4C[C@H]5CC[C@@H](C4)N5C(=O)CO)nc23)cc1` [Compound 8.82, 1-(4-(7-amino-5-((1R,3s,5S)-8-(2-hydroxyacetyl)-8-azabicyclo[3.2.1]octan-3-yl)pyrazolo[1,5-a]pyrimidin-3-yl)phenyl)-3-methylurea], the IC50 in experiment [1] (Homo sapiens, PC-3, PC3 cells) is > 10000 nM; in experiment [2] (Homo sapiens, PC-3, PC3 cells), > 10000 nM.

With `CS(=O)(=O)c1c([C@@H]2C[C@H]3CC[C@@H](C2)N3S(=O)(=O)c2nnc[nH]2)nc2c(-c3ccc(-c4ccccc4)nc3)cnn2c1N` [Compound 3.26, 5-((1R,3s,5S)-8-(4H-1,2,4-triazol-3-ylsulfonyl)-8-azabicyclo[3.2.1]octan-3-yl)-6-(methylsulfonyl)-3-(6-phenylpyridin-3-yl)pyrazolo[1,5-a]pyrimidin-7-amine], the IC50 is 1000 to 10000 nM in experiment [1] (setting [4]) and 100 to 1000 nM in experiment [2] (setting [4]).

Regarding `COc1ccc(-c2ccc(-c3cnn4c(N)c(S(C)(=O)=O)c([C@@H]5C[C@H]6CC[C@@H](C5)N6C(=O)c5nnc[nH]5)nc34)cn2)c(F)c1` [Compound 3.32, ((1R,3s,5S)-3-(7-amino-3-(6-(2-fluoro-4-methoxyphenyl)pyridin-3-yl)-6-(methylsulfonyl)pyrazolo[1,5-a]pyrimidin-5-yl)-8-azabicyclo[3.2.1]octan-8-yl)(4H-1,2,4-triazol-3-yl)methanone], the IC50 in experiment [1] (setting [4]) and in experiment [2] (setting [4]) was 1 to 100 nM throughout.

For `CC(=O)c1c([C@@H]2C[C@H]3CC[C@@H](C2)N3C(=O)c2nnc[nH]2)nc2c(-c3ccc(-n4cc(C)cn4)nc3)cnn2c1N` [Compound 1.1.135, 1-(5-((1R,3s,5S)-8-(4H-1,2,4-triazole-3-carbonyl)-8-azabicyclo[3.2.1]octan-3-yl)-7-amino-3-(6-(4-methyl-1H-pyrazol-1-yl)pyridin-3-yl)pyrazolo[1,5-a]pyrimidin-6-yl)ethanone], the IC50 in experiment [1] (setting [3]) and in experiment [2] (setting [3]) was 1 to 100 nM in each case.

For `Cc1nnc(C(=O)N2[C@@H]3CC[C@H]2C[C@H](c2nc4c(-c5ccc(-c6ccccc6)nc5)cnn4c(N)c2C2CC2)C3)[nH]1` [Compound 4.2, ((1R,3a,5S)-3-(7-amino-6-cyclopropyl-3-(6-phenylpyridin-3-yl)pyrazolo[1,5-a]pyrimidin-5-yl)-8-azabicyclo[3.2.1]octan-8-yl)(5-methyl-4H-1,2,4-triazol-3-yl)methanone], the IC50 in experiment [1] (setting [3]) and in experiment [2] (setting [3]) was 1 to 100 nM throughout.

`CC(=O)c1c([C@@H]2C[C@H]3CC[C@@H](C2)N3C(=O)C2(O)CC2)nc2c(-c3ccc(-c4ccccc4)nc3)cnn2c1N` [Compound 1.1.48, 1-(7-amino-5-((1R,3s,5S)-8-(1-hydroxycyclopropanecarbonyl)-8-azabicyclo[3.2.1]octan-3-yl)-3-(6-phenylpyridin-3-yl)pyrazolo[1,5-a]pyrimidin-6-yl)ethanone]: the IC50 in experiment [1] (setting [3]) and in experiment [2] (setting [3]) was 100 to 1000 nM in each case.

As to `CC(=O)c1c([C@@H]2C[C@H]3CC[C@@H](C2)N3C(=O)c2nnc[nH]2)nc2c(-c3ccc(C#CCO)nc3)cnn2c1N` [Compound 8.56, 1-(5-((1R,3s,5S)-8-(4H-1,2,4-triazole-3-carbonyl)-8-azabicyclo[3.2.1]octan-3-yl)-7-amino-3-(6-(3-hydroxyprop-1-ynyl)pyridin-3-yl)pyrazolo[1,5-a]pyrimidin-6-yl)ethanone], the IC50 fell in the range of 100 to 1000 nM in experiment [1] (Homo sapiens, PC-3, PC3 cells) and 100 to 1000 nM in experiment [2] (Homo sapiens, PC-3, PC3 cells).

For the compound `COc1ccc(-c2ccc(-c3cnn4c(N)c(Br)c([C@@H]5C[C@H]6CC[C@@H](C5)N6C(=O)CO)nc34)cn2)cc1CO` [Compound 2.2, 1-((1R,3s,5S)-3-(7-amino-6-bromo-3-(6-(3-(hydroxymethyl)-4-methoxyphenyl)pyridin-3-yl)pyrazolo[1,5-a]pyrimidin-5-yl)-8-azabicyclo[3.2.1]octan-8-yl)-2-hydroxyethanone], the IC50 lay within 100 to 1000 nM in experiment [1] (setting [3]) and 1 to 100 nM in experiment [2] (setting [3]).

For `COc1ccc(-c2ccc(-c3cnn4c(N)c(S(C)(=O)=O)c([C@@H]5C[C@H]6CC[C@@H](C5)N6C(=O)c5nnc[nH]5)nc34)cn2)cc1` [Compound 3.33, ((1R,3s,5S)-3-(7-amino-3-(6-(4-methoxyphenyl)pyridin-3-yl)-6-(methylsulfonyl)pyrazolo[1,5-a]pyrimidin-5-yl)-8-azabicyclo[3.2.1]octan-8-yl)(4H-1,2,4-triazol-3-yl)methanone], the IC50 in experiment [1] (setting [4]) and in experiment [2] (setting [4]) was 1 to 100 nM throughout.

For the compound `COCCOc1ccc(-c2ccc(-c3cnn4c(N)c(C5CC5)c([C@@H]5C[C@H]6CC[C@@H](C5)N6C(=O)c5nnc[nH]5)nc34)cn2)cc1` [Compound 4.14, ((1R,3s,5S)-3-(7-amino-6-cyclopropyl-3-(6-(4-(2-methoxyethoxy)phenyl)pyridin-3-yl)pyrazolo[1,5-a]pyrimidin-5-yl)-8-azabicyclo[3.2.1]octan-8-yl)(4H-1,2,4-triazol-3-yl)methanone], the IC50 in experiment [1] (setting [3]) and in experiment [2] (setting [3]) was 100 to 1000 nM throughout.

As to `[2H]C1(O)CCCc2cc(-c3cnn4c(N)c(C5CC5)c([C@H]5CC6CC[C@H](C5)N6C(=O)c5nnc[nH]5)nc34)cnc21` (stereo partly drawn) [Compound 7.56, DEUTERATED-(3- EXO)-3-[7-AMINO-6- CYCLOPROPYL-3- (5,6,7,8- TETRAHYDRO-8- HYDROXY-3- QUINOLINYL- (D))PYRAZOLO[1,5- a]PYRIMIDIN-5-YL]-8- (4H-1,2,4-TRIAZOL-3- YLCARBONYL)-8- AZABICYCLO[3.2.1] OCTANE], the IC50 in experiment [1] (Homo sapiens, PC-3, PC3 cells) was in the range of 1 to 100 nM; in experiment [2] (Homo sapiens, PC-3, PC3 cells) it was 1 to 100 nM.

As to `CC(=O)N1[C@@H]2CC[C@H]1C[C@H](c1nc3c(-c4ccc(-c5ncc(C)s5)nc4)cnn3c(N)c1S(C)(=O)=O)C2` [Compound 3.182, 1-((1R,3s,5S)-3-(7-amino-6-(methylsulfonyl)-3-(6-(5-methylthiazol-2-yl)pyridin-3-yl)pyrazolo[1,5-a]pyrimidin-5-yl)-8-azabicyclo[3.2.1]octan-8-yl)ethanone], the IC50 in experiment [1] (Table 3-1, PC3 cells) was in the range of 100 to 1000 nM; in experiment [2] (Table 3-1, PC3 cells) it was 100 to 1000 nM.

Turning to `COc1cc(F)cc2cc(-c3cnn4c(N)c(C(C)=O)c([C@@H]5C[C@H]6CC[C@@H](C5)N6C(=O)CO)nc34)cnc12` [Compound 1.1.183, 1-((1R,3r,5S)-3-(6-acetyl-7-amino-3-(6-fluoro-8-methoxyquinolin-3-yl)pyrazolo[1,5-a]pyrimidin-5-yl)-8-azabicyclo[3.2.1]octan-8-yl)-2-hydroxyethanone], the IC50 in experiment [1] (setting [3]) lay in the range of 100 to 1000 nM; in experiment [2] (setting [3]) it was 1 to 100 nM.

With `CC(=O)c1c([C@@H]2C[C@H]3CC[C@@H](C2)N3C(=O)CO)nc2c(-c3ccc(-c4ncc(C)[nH]4)nc3)cnn2c1N` [Compound 6.26, 1-((1R,3s,5S)-3-(6-acetyl-7-amino-3-(6-(5-methyl-1H-imidazol-2-yl)pyridin-3-yl)pyrazolo[1,5-a]pyrimidin-5-yl)-8-azabicyclo[3.2.1]octan-8-yl)-2-hydroxyethanone], the IC50 in experiment [1] (setting [5]) and in experiment [2] (setting [5]) was 1 to 100 nM throughout.

For `COc1ccc(-c2ccc(-c3cnn4c(N)c(S(C)(=O)=O)c([C@@H]5C[C@H]6CC[C@@H](C5)N6C(=O)c5nnc[nH]5)nc34)cn2)cn1` [Compound 3.164, ((1R,3s,5S)-3-(7-amino-3-(6′-methoxy-2,3′-bipyridin-5-yl)-6-(methylsulfonyl)pyrazolo[1,5-a]pyrimidin-5-yl)-8-azabicyclo[3.2.1]octan-8-yl)(4H-1,2,4-triazol-3-yl)methanone], the IC50 in experiment [1] (setting [4]) and in experiment [2] (setting [4]) was 100 to 1000 nM throughout.

For the compound `CS(=O)(=O)c1c([C@@H]2C[C@H]3CC[C@@H](C2)N3C(=O)c2nnc[nH]2)nc2c(-c3ccc(-c4nccs4)nc3)cnn2c1N` [Compound 3.24, ((1R,3s,5S)-3-(7-amino-6-(methylsulfonyl)-3-(6-(thiazol-2-yl)pyridin-3-yl)pyrazolo[1,5-a]pyrimidin-5-yl)-8-azabicyclo[3.2.1]octan-8-yl)(4H-1,2,4-triazol-3-yl)methanone], the IC50 in experiment [1] (setting [4]) and in experiment [2] (setting [4]) was 1 to 100 nM throughout.
